From PubChem BioAssay AID1996 come the findings set out here.

Converted amounts (≈) assume the structure as drawn. Bounds are passed on as bounds.

For this series the following is noted: buffer; pH 7.4; 200.0 µM.
For `Cc1cc(C(=O)OCC(=O)Nc2cccc(S(N)(=O)=O)c2)c(C)o1`, the kinetic solubility (in general, solubility judged after dilution from a stock solution rather than from solid) was above 52.9 µg/mL.
Next, `O=C(/C=C/c1ccc2c(c1)OCO2)NC1CCCC1`: 31.4 µg/mL (≈ 121 µM).
Next, `Cc1ccc(C(=O)NCCc2c[nH]c3ccccc23)s1`: above 42.7 µg/mL; `COc1cc(OC)cc(C(=O)O/N=C(\N)c2ccccn2)c1`: 40.6 µg/mL (≈ 135 µM).
Next, `Cc1cccnc1NC(=O)CNC(=O)c1cccs1`: above 41.3 µg/mL; `COc1ccccc1OCC(=O)Nc1sc2c(c1C(N)=O)CCC2`: 4.6 µg/mL (≈ 13.3 µM); `COc1cc(CN2CCN(Cc3cccc(OC)c3OC)CC2)cc(OC)c1`: 47.8 µg/mL (≈ 124 µM).
Compound `COCCSc1ccccc1C(=O)Nc1ccc(Br)cc1` had a kinetic solubility of 43.1 µg/mL (≈ 118 µM).
To `CNC(=O)c1cc2cc(Br)ccc2s1` belongs 8.1 µg/mL (≈ 30 µM).
Next, `CCc1ccc(Nc2ccc3nonc3c2[N+](=O)[O-])cc1`: below 0.2 µg/mL.
Next, `O=[N+]([O-])c1ccccc1Nc1ccccc1`: 1.1 µg/mL (≈ 5.13 µM); `COc1cc(NC(=S)N2CCN(CCO)CC2)cc(OC)c1`: above 48.8 µg/mL.
In the case of `Cc1ccc(S(=O)(=O)c2c[nH]c3ccc(C)cc3c2=O)cc1`, the kinetic solubility is below 0.7 µg/mL.
Next, `OCCCNc1c2ccccc2nc2ccccc12`: above 37.8 µg/mL; `O=C(Nc1ccc(CN2CCS(=O)(=O)CC2)cc1)c1ccc(F)cc1`: 29.9 µg/mL (≈ 82.5 µM); `CCOc1ccccc1NC(=O)Nc1ccsc1C(=O)OC`: 7.9 µg/mL (≈ 24.7 µM).
To `O=C(c1cccc([N+](=O)[O-])c1)N1CCc2ccccc21` belongs 2.1 µg/mL (≈ 7.83 µM).
Next, `Cc1ccc(S(=O)(=O)N2CCCCC2)cc1NC(=O)CSc1nnc(C2CC2)n1C`: above 67.4 µg/mL; `CCC(C)Nc1nc(N)c([N+](=O)[O-])c(Nc2ccccc2OC)n1` (stereo not given): 2.6 µg/mL (≈ 7.82 µM); `CC(C)CCOc1cccc(OCC(=O)Nc2ccncc2)c1`: 27.7 µg/mL (≈ 88.1 µM).
In turn, `O=C1c2ccccc2C(=O)N1CCCn1ccnc1` displayed a kinetic solubility above 38.3 µg/mL.
Next, `Cc1ccnc(NC(=O)c2cccc(S(=O)(=O)Nc3ccc(C)cc3C)c2)c1`: 10.7 µg/mL (≈ 27.1 µM).
Next, `O=C(COC(=O)/C=C/c1cccc(F)c1)NC1CCCCCC1`: 5.6 µg/mL (≈ 17.5 µM); `O=C(O)CCn1c(Cc2ccccc2)nc2ccccc21`: above 42 µg/mL; `NC(=O)C1CCN(c2oc(-c3cccs3)nc2S(=O)(=O)c2ccc(Br)cc2)CC1`: 17.6 µg/mL (≈ 35.5 µM).
`Cc1cccc(NC(=O)C2Cc3ccccc3O/C2=N\O)c1` (stereo not given) came in with a solubility (kinetic) of 1.2 µg/mL (≈ 4.05 µM).
Next, `COc1ccc(C(=O)NCC(=O)N2CCNC(=O)C2)cc1OC`: above 48.2 µg/mL; `COc1cc2c(cc1OC)C(C)N(C(=O)c1c(C)noc1C)CC2` (stereo not given): 2.7 µg/mL (≈ 8.17 µM); `Cc1ccc(S(=O)(=O)N2CCCCC2)cc1NC(=O)C1CC1`: above 48.4 µg/mL.
Next, `Cc1ccc(C(=O)c2coc3ccc(O)c(CN(C)C)c23)cc1.Cl`: 48 µg/mL; `NC(=O)c1ccccc1OCc1nc2ccccc2s1`: 19.5 µg/mL (≈ 68.6 µM); `Nc1nc(CSc2ccc(Cl)cc2)nc(N2CCCCC2)n1`: 5.6 µg/mL (≈ 16.7 µM).
With `Cc1ccc(C23CC4CC(CC(C(=O)NC(C)C)(C4)C2)C3)cc1`, the solubility (kinetic) was below 0.7 µg/mL.
In the case of `Cc1nn(CC(=O)NCc2cccc(F)c2)c(=O)c2cccn12`, the solubility (kinetic) is above 47.1 µg/mL.
Consider `CC1=C([N+](=O)[O-])C(c2ccc(Cl)cc2)NC(=O)N1C` (stereo not given), for which the kinetic solubility is 30.4 µg/mL (≈ 108 µM).
To `Cc1ccc(NC(=S)N2CCCCCC2)cc1` belongs above 37.3 µg/mL.
`COc1ccccc1-c1nnc(SCC(=O)N2CCCC2)o1` returned a solubility (kinetic) above 47.9 µg/mL.
Next, `NC(=O)c1ccsc1NC(=O)COC(=O)c1cccnc1Cl`: 4.7 µg/mL (≈ 13.8 µM).
Next, `C=CCC(CC=C)(C(N)=O)c1ccccc1`: 31.6 µg/mL (≈ 147 µM).
Next, `O=C(NCCSCc1ccco1)c1ccc(=O)[nH]c1`: 38.2 µg/mL (≈ 137 µM); `COC(=O)c1sccc1NC(=O)c1ccc(Cl)cc1`: below 0.6 µg/mL.
Regarding `CC1CCN(C(=O)C(C)Cl)CC1` (stereo not given), the kinetic solubility turned out to be 11.1 µg/mL (≈ 58.5 µM).
Next, `NC(=O)COC(=O)CCSc1ccc(Cl)cc1`: 30.2 µg/mL (≈ 110 µM); `COc1ccc(-c2cc(C(=O)NC3CCCC3)c3ccccc3n2)cc1`: 4.7 µg/mL (≈ 13.6 µM); `COc1cc(C(F)(F)F)c(C(=O)N(C)Cc2cccc(Cl)c2)cn1`: 43.6 µg/mL (≈ 122 µM).
As for `CC(C)=CC(=O)OCC(=O)Nc1cc(C)ccc1C`, the solubility (kinetic) was determined as 15 µg/mL (≈ 57.4 µM).
Next, `CCCCN(C(=O)c1c(C)noc1C)c1c(N)n(CCC)c(=O)[nH]c1=O`: 18.6 µg/mL (≈ 51.2 µM).
Next, `NC(=O)CCn1cnc2ccccc21`: 25.5 µg/mL (≈ 135 µM); `O=S(=O)(CCSc1ccc(C(F)(F)F)cn1)c1ccc(Cl)cc1`: below 0.8 µg/mL; `O=C(O)C1CCCCC1C(=O)NCCCN1CCCC1=O` (stereo not given): 41.4 µg/mL (≈ 140 µM).
Next, `O=C(/C=C/C=C/c1ccccc1)CC1(O)C(=O)Nc2ccccc21` (stereo not given): above 47.9 µg/mL.
`COC(=O)c1ccc(N2C(=O)C3CC(C)=C(C)CC3C2=O)cc1` (stereo not given) displayed a kinetic solubility of 18.3 µg/mL (≈ 58.4 µM).
The compound `CCCN1CNc2c(c(=O)[nH]c(=S)n2-c2ccccc2Cl)C1` had a kinetic solubility above 50.5 µg/mL.
Next, `O=[N+]([O-])c1ccc(Nc2cccc(F)c2)nc1`: 13.4 µg/mL (≈ 57.5 µM).
Next, `CSCC(=O)Nc1ccc(F)c(Cl)c1`: above 35.1 µg/mL; `O=C(O)CCN=CC1=C(O)CC(c2ccccc2)CC1=O` (stereo not given): above 43.1 µg/mL.
Next, `CCCCC(=O)Nc1ccc(NC(=O)c2ccco2)cn1`: 36.9 µg/mL (≈ 128 µM); `Cc1ccc(C(=O)N/C(=C/c2ccco2)C(=O)NCc2ccco2)cc1`: above 52.6 µg/mL.
Compound `Cc1ccc(C(C)NC(=O)c2ccncc2)c(C)c1` (stereo not given) displayed a solubility (kinetic) above 38.1 µg/mL.
To `O=C(COC(=O)CCSc1ccccc1)Nc1ccccc1` belongs 41.6 µg/mL (≈ 132 µM).
To `COc1cccc(N2C(=O)C3CCCN3C2=S)c1` (stereo not given) belongs above 39.3 µg/mL; to `COc1ccccc1-n1c(CCC(=O)O)ccc1-c1ccccc1`, above 48.2 µg/mL.
Next, `O=C(Nc1cccc(Cl)c1)Nc1c[nH]c(=O)[nH]c1=O`: 3.4 µg/mL (≈ 12.1 µM).
Turning to `O=C(O)c1cccnc1SCC(=O)C12CC3CC(CC(C3)C1)C2`, the solubility (kinetic) is above 49.7 µg/mL.
As for `Cc1nc(CNS(=O)(=O)c2ccc(F)cc2)cs1`, the kinetic solubility is above 43 µg/mL.
Next, `N#CCc1nc2ccccc2c(=O)[nH]1`: above 27.8 µg/mL.
Next, `COc1ccc(CCC(=O)NC2CCCc3ccccc32)cc1OC` (stereo not given): 47.5 µg/mL (≈ 140 µM); `Cn1c(=O)c2c(nc(Sc3ccccc3N)n2C)n(C)c1=O`: 39.1 µg/mL (≈ 123 µM).
On to `O=C(Nc1ccc(Cl)c([N+](=O)[O-])c1)c1ccc2c(c1)OCCO2`, for which the solubility (kinetic) is below 0.4 µg/mL.
Consider `COCCNC(=O)/C(C#N)=C/c1ccc(O)cc1`, for which the solubility (kinetic) was above 36.9 µg/mL.
For `CCCCN(C)C(=O)c1cc2c(s1)-c1ccccc1S(=O)(=O)C2`, the kinetic solubility is above 52.4 µg/mL.
The compound `c1ccc2c(c1)Sc1ccccc1N2CC1CN2CCC1CC2` (stereo not given) registered a kinetic solubility above 48.4 µg/mL.
To `O=C(CNC(=O)c1ccccc1F)N/N=C/c1cccnc1` belongs above 45 µg/mL; to `CC1CCCCC1NC(=O)COC(=O)c1cc(=O)c2ccccc2o1` (stereo not given), above 51.5 µg/mL; to `CCOc1ccc(-n2c([O-])cc(=O)[nH]c2=O)cc1.[NH4+]`, 35.2 µg/mL.
